Here are results for 5 molecules from US9610367B2, “Particle and contrast agent having the particle” (CANON KABUSHIKI KAISHA, priority 2010, dated 2017).

What all share (format): physicochemical
Data set [1] can be described thus: dissolution of ICG in chloroform with lipids without a positively charged region. The note with it: lipid without positively charged region used instead of DOPE. The text has this: Instead of DOPE of Example 1, lipids (chemical formula 8, tristearin; chemical formula 9, triolein; chemical formula 10, ethyl stearate; chemical formula 11, β-carotene; and chemical formula 12, cholesterol acetate) without a positively charged region represented by the following chemical formulas 8 to 12 were used to prepare an ICG composition in the same manner as in Example 1. However, ICG was not dissolved in chloroform in any case, and a target polymer nanoparticle containing ICG could not be obtained.

Data set [2] is described as follows: solubility of ICG in dichloromethane when phospholipid was added. The note with it: phospholipid not added; inferred from absorption curve integral values. The method, then:
2 molar equivalents of a phospholipid was added to 5.5 mg of ICG. As the phospholipid, DSPC or DOPE was used. Each of these ICG-phospholipid mixtures was dissolved in 2 mL of dichloromethane. Controls were prepared by dissolving in ICG in methanol or dichloromethane. All these ICG solutions were filtered with a filter having a pore size of 0.2 μm and then diluted 500-fold with dichloromethane.

Data set [3] is described as follows: stability of aqueous dispersion: absorbance at λmax over time at 4° C. in a dark place. The following applies: at 48 hours; ICG dissolved in water. The protocol:
To evaluate the stability of polymer nanoparticles, aqueous dispersions of PNP1 and PNP2 were allowed to stand at 4° C. in a dark place, and changes in the absorbance at λmax were measured over time. The results are illustrated in FIGS. 5 and 6. As a comparative example, changes with time in the absorbance at λmax of NPL 1 and in an ICG solution are illustrated in FIG. 5.
Changes in the absorbance of the aqueous dispersions of PNP4 to PNP6 at λmax were measured over time in the same manner as in Example 9. The results are illustrated in FIGS. 7 and 8. As a comparative example, changes with time in the absorbance at λmax of NPL 1 and in an ICG solution are illustrated in FIG. 7.
The PNP10 prepared in Example 13 was diluted with water, and the absorbance was measured over time with an absorption spectrometer (Perkin Elmer). The dispersion was shielded from a light except when measurement was performed and stored at 4° C. The measurement results are illustrated in FIG. 9.

As to `CCCCCCCCCCCCCCCCCC(=O)OCC(COC(=O)CCCCCCCCCCCCCCCCC)OC(=O)CCCCCCCCCCCCCCCCC` [tristearin], the “dissolution of ICG in chloroform” value in data set [1] is listed as “not dissolved”. Same read-out and setting: the value for `CCCCCCCCCCCCCCCCCC(=O)OCC` [ethyl stearate] was “not dissolved”. As to indocyanine green [ICG], the “ICG dissolved in dichloromethane” value in data set [2] is listed as “approximately 0.6 mM”. Moreover, in data set [3], the “absorbance change rate at λmax” value was determined as 70%. On to `CC(=O)O[C@H]1CC[C@@]2(C)C(=CC[C@H]3[C@@H]4CC[C@H]([C@H](C)CCCC(C)C)[C@@]4(C)CC[C@@H]32)C1` [cholesterol acetate], for which the “dissolution of ICG in chloroform” value in data set [1] is “not dissolved”. With `CCCCCCCC/C=C\CCCCCCCC(=O)OCC(COC(=O)CCCCCCC/C=C\CCCCCCCC)OC(=O)CCCCCCC/C=C\CCCCCCCC` [triolein], the “dissolution of ICG in chloroform” value in data set [1] is “not dissolved”.
